These results are taken from patent US20230398106A1 (NEURORIVE INC, priority 2020, published 2023).

For the assay, the system named is 5×FAD mouse. As to the kind of experiment: Morris water maze (MWM) task in 5×FAD mice. Type of assay: in vivo. The protocol:
A Morris water maze (MWM) task was conducted to examine an effect on improving cognitive function depending on the administration of the complex composition of the present invention. […] The above markers remained unchanged throughout the test period. The escape platform was placed 1 cm above the water surface or 0.5 to 1.5 cm below the water surface according to the purpose of the experiment. When placed under the water surface, the water was made opaque with white water-based paint so that the escape platform was not visible to the eye. The Morris water maze was divided into four quadrants, i.e., northeast (NE), northwest (NW), southeast (SE) and southwest (SW), wherein the escape platform was placed in the center of the southwest quadrant, and the mouse started randomly from one of the others.
The escape platform was made visible on Learning DAY 0. Each mouse was trained to recognize that it was possible to escape when they swam toward the escape platform and landed thereon. On DAY 1-4, the escape platform was hidden by being placed under the water, and then the mice learned the position of the escape platform. […] The mice were then immediately transferred to the breeding cage. On DAY 5, the probe test was performed without the escape platform. The probe test was performed by placing the mouse in the farthest part of the quadrant where the escape platform was placed during the training day, and 60 seconds was set as the time limit. The indexes of cognitive function include the escape latency which is the time required for the mouse to find the escape platform and the time spent in the quadrant where the escape platform was placed. It was judged that the shorter the time it takes to escape (FIG. 2A) and the longer the mouse stays in the quadrant where the escape platform was placed (FIG. 2B), the better the memory and learning ability of the mouse.
Then, each group was subjected to oral administration for 4 weeks to perform the experiment.

With `COc1cc2c(cc1OC)C(=O)C(CC1CCN(Cc3ccccc3)CC1)C2` (stereo not drawn) [Donepezil, donepezil], the “escape latency reduced by, based on the mutant mouse vehicle group” value (2 mg/kg of donepezil alone, reduction stated in text) was 14.2%. For the same compound, where the note is “Mutated mouse, Donepezil 2 mg/kg oral, 4 weeks, DAY 4”, the “Escape latency (Increase or decrease compared to mutated mouse vehicle group)” value is on record as −14.2%. The “time spent in the target quadrant (Increase or decrease compared to mutated mouse vehicle group)” value (Mutated mouse, donepezil 2 mg/kg oral, 4 weeks, probe test DAY 5) amounted to 73.20%.
